# Measured values published in ChEMBL document CHEMBL2396562, “Synthesis and SAR of potent and selective tetrahydropyrazinoisoquinolinone 5-HT(2C) receptor agonists” (Bioorg Med Chem Lett, 2013).
# Key:
# in vivo [1] = settings: Sprague-Dawley, rat, brain/plasma, po, 10 mg/kg
# in vivo [2] = settings: Sprague-Dawley, rat, po, 10 mg/kg
# in vivo [3] = settings: Sprague-Dawley, rat, po, 10 mg/kg; remark: listed apart in the source
smiles,measurement,setting,value
CCc1cccc2c1C[C@@H]1CNCCN1C2=O,Kp,in vivo [1],3.9
same,AUC(0-t) at 4 h,in vivo [2],9.64 µM·h
same,Cmax,in vivo [3],3.62 µM
